{"source": "ChEMBL document CHEMBL3739262", "about": "“Flavones Inhibit the Activity of AKR1B10, a Promising Therapeutic Target for Cancer Treatment” (J Nat Prod, 2015)", "key": {"[1]": {"biological_target": "T1, Aldo-keto reductase family 1 member B10 (Homo sapiens, UniProt O60218)", "assay": "Inhibition of recombinant human N-terminal His6-tagged AKR1B10 expressed in Escherichia coli BL21 cells using all-trans-retinal as substrate at 20 uM incubated for 15 mins by HPLC method"}, "[2]": {"biological_target": "T1, Aldo-keto reductase family 1 member B10", "assay": "Inhibition of recombinant human AKR1B10 expressed in human HCT116 cells assessed as reduction in daunorubicinol production using daunorubicin as substrate at 10 uM incubated for 4 to 8 hrs by UHPLC based transient transfection assay", "format": "cell-based", "conditions": "HCT-116"}, "[3]": {"biological_target": "T1, Aldo-keto reductase family 1 member B10", "assay": "Inhibition of recombinant human AKR1B10 expressed in human HCT116 cells assessed as reduction in daunorubicinol production using daunorubicin as substrate at 20 uM incubated for 4 to 8 hrs by UHPLC based transient transfection assay", "format": "cell-based", "conditions": "HCT-116"}, "[4]": {"biological_target": "T1, Aldo-keto reductase family 1 member B10", "assay": "Potency index, ratio of IC50 for flufenamic acid to IC50 for text compound for inhibition of recombinant human N-terminal His6-tagged AKR1B10 expressed in Escherichia coli BL21 cells using all-trans-retinal as substrate incubated for 15 mins by HPLC method"}, "[5]": {"biological_target": "T1, Aldo-keto reductase family 1 member B10", "assay": "Inhibition of recombinant human N-terminal His6-tagged AKR1B10 expressed in Escherichia coli BL21 cells using all-trans-retinal as substrate incubated for 15 mins by HPLC method"}, "[6]": {"assay": "Cytotoxicity against human HCT116 cells assessed as cell viability after 72 hrs by MTT assay", "format": "cell-based", "conditions": "HCT-116, 72 h"}, "[7]": {"biological_target": "Aldo-keto reductase family 1 member B1 (Homo sapiens, UniProt P15121)", "assay": "Inhibition of recombinant N-terminal His6-tagged AKR1B1 (unknown origin) expressed in Escherichia coli BL21 cells using all-trans-retinal as substrate incubated for 15 mins by HPLC method"}, "[8]": {"biological_target": "T1, Aldo-keto reductase family 1 member B10", "assay": "Inhibition of recombinant human N-terminal His6-tagged AKR1B10 expressed in Escherichia coli BL21 cells using daunorubicin as substrate incubated for 20 mins by UHPLC method"}, "[9]": {"biological_target": "T1, Aldo-keto reductase family 1 member B10", "assay": "Non-competitive inhibition of recombinant human N-terminal His6-tagged AKR1B10 expressed in Escherichia coli BL21 cells using all-trans-retinal as substrate incubated for 15 mins by Lineweaver-Burk plot analysis"}, "[10]": {"biological_target": "T1, Aldo-keto reductase family 1 member B10", "assay": "Inhibition of recombinant human AKR1B10 expressed in human HCT116 cells assessed as reduction in daunorubicinol production using daunorubicin as substrate incubated for 4 to 8 hrs by UHPLC based transient transfection assay", "format": "cell-based", "conditions": "HCT-116"}}, "note": "Activity calls are given as the source filed them. The calls are words filed in the database; no cut-off is given here.", "data": [{"smiles": "COc1cc([C@H]2Oc3cc([C@H]4Oc5cc(O)c(O)cc5C(=O)[C@@H]4O)ccc3O[C@@H]2CO)ccc1O", "values": [{"measurement": "inhibition", "setting": "[1]", "result": "Active"}]}, {"smiles": "COc1ccc([C@@H]2CC(=O)c3c(O)cc(O)cc3O2)cc1O", "values": [{"measurement": "inhibition", "setting": "[1]", "result": "Active"}]}, {"smiles": "C[C@@H]1O[C@@H](OC[C@H]2O[C@@H](Oc3c(-c4ccc(O)c(O)c4)oc4cc(O)cc(O)c4c3=O)[C@H](O)[C@@H](O)[C@@H]2O)[C@H](O)[C@H](O)[C@H]1O", "values": [{"measurement": "inhibition", "setting": "[1]", "result": "Active"}]}, {"smiles": "C[C@@H]1O[C@@H](Oc2c(-c3ccc(O)c(O)c3)oc3cc(O)cc(O)c3c2=O)[C@H](O)[C@H](O)[C@H]1O", "values": [{"measurement": "inhibition", "setting": "[1]", "result": "Active"}]}, {"smiles": "O=C(/C=C/c1ccc(O)c(O)c1)O[C@@H]1C[C@](O)(C(=O)O)C[C@@H](O)[C@H]1O", "values": [{"measurement": "inhibition", "setting": "[1]", "result": "Active"}]}, {"smiles": "O=C(CCc1ccc(O)cc1)c1c(O)cc(O)cc1O[C@@H]1O[C@H](CO)[C@@H](O)[C@H](O)[C@H]1O", "values": [{"measurement": "inhibition", "setting": "[1]", "result": "Active"}]}, {"smiles": "O=C(O)/C=C/c1ccc(O)c(O)c1", "values": [{"measurement": "inhibition", "setting": "[1]", "result": "Active"}]}, {"smiles": "O=C(O)c1ccc(O)cc1", "values": [{"measurement": "inhibition", "setting": "[1]", "result": "Active"}]}, {"smiles": "O=C(O[C@@H]1Cc2c(O)cc(O)cc2O[C@@H]1c1cc(O)c(O)c(O)c1)c1cc(O)c(O)c(O)c1", "values": [{"measurement": "inhibition", "setting": "[1]", "result": "Active"}]}, {"smiles": "O=C1CC(c2ccc(O)cc2)Oc2ccccc21", "note": "(stereo unspecified)", "values": [{"measurement": "inhibition", "setting": "[1]", "result": "Active"}]}, {"smiles": "O=C1CC(c2ccccc2O)Oc2ccccc21", "note": "(stereo unspecified)", "values": [{"measurement": "inhibition", "setting": "[1]", "result": "Active"}]}, {"smiles": "O=C1C[C@@H](c2ccc(O)cc2)Oc2cc(O)cc(O)c21", "values": [{"measurement": "inhibition", "setting": "[1]", "result": "Active"}]}, {"smiles": "O=C1c2c(O)cc(O)cc2O[C@H](c2ccc(O)c(O)c2)[C@H]1O", "values": [{"measurement": "inhibition", "setting": "[1]", "result": "Active"}]}, {"smiles": "O=c1c(O)c(-c2ccc(O)c(O)c2)oc2cc(O)cc(O)c12", "values": [{"measurement": "inhibition", "setting": "[1]", "result": "Active"}, {"measurement": "inhibition", "setting": "[2]", "result": 18, "unit": "%"}, {"measurement": "inhibition", "setting": "[3]", "result": 23, "unit": "%"}]}, {"smiles": "O=c1c(O)c(-c2ccc(O)cc2O)oc2cc(O)cc(O)c12", "values": [{"measurement": "inhibition", "setting": "[1]", "result": "Active"}]}, {"smiles": "O=c1c(O)c(-c2ccccc2)oc2ccccc12", "values": [{"measurement": "inhibition", "setting": "[1]", "result": "Active"}]}, {"smiles": "O=c1cc(-c2ccc(O)cc2)oc2c([C@@H]3O[C@H](CO)[C@@H](O)[C@H](O)[C@H]3O)c(O)cc(O)c12", "values": [{"measurement": "inhibition", "setting": "[1]", "result": "Active"}]}, {"smiles": "O=c1cc(-c2ccccc2)oc2cccc(O)c12", "values": [{"measurement": "inhibition", "setting": "[1]", "result": "Active"}]}, {"smiles": "Oc1cc(O)c2c(c1)O[C@H](c1ccc(O)c(O)c1)[C@@H](O)C2", "values": [{"measurement": "inhibition", "setting": "[1]", "result": "Active"}]}, {"smiles": "O=c1cc(-c2ccccc2)oc2cc(O)ccc12", "note": "[7-HYDROXYFLAVONE]", "values": [{"measurement": "Ratio IC50", "setting": "[4]", "result": 10}, {"measurement": "inhibition", "setting": "[1]", "result": "Active"}, {"measurement": "IC50", "setting": "[5]", "result": 8.3, "unit": "µM"}, {"measurement": "EC50", "setting": "[6]", "result": "> 50", "unit": "µM"}, {"measurement": "IC50", "setting": "[7]", "result": 12.3, "unit": "µM"}, {"measurement": "inhibition", "setting": "[3]", "result": 19, "unit": "%"}, {"measurement": "IC50", "setting": "[8]", "result": 160, "unit": "µM"}]}, {"smiles": "O=c1cc(-c2ccc(O)cc2)oc2cc(O)cc(O)c12", "note": "[APIGENIN]", "values": [{"measurement": "Ratio IC50", "setting": "[4]", "result": 10}, {"measurement": "inhibition", "setting": "[1]", "result": "Active"}, {"measurement": "inhibition", "setting": "[2]", "result": 25, "unit": "%"}, {"measurement": "IC50", "setting": "[5]", "result": 6.6, "unit": "µM"}, {"measurement": "EC50", "setting": "[6]", "result": 23.8, "unit": "µM"}, {"measurement": "IC50", "setting": "[7]", "result": 11.9, "unit": "µM"}, {"measurement": "Ki", "setting": "[9]", "result": 6, "unit": "µM"}, {"measurement": "inhibition", "setting": "[3]", "result": 34, "unit": "%"}, {"measurement": "IC50", "setting": "[8]", "result": 37.1, "unit": "µM"}]}, {"smiles": "COc1ccc(-c2coc3cc(O)cc(O)c3c2=O)cc1", "note": "[BIOCHANIN]", "values": [{"measurement": "inhibition", "setting": "[1]", "result": "Active"}, {"measurement": "IC50", "setting": "[5]", "result": 36.1, "unit": "µM"}, {"measurement": "IC50", "setting": "[7]", "result": 127, "unit": "µM"}]}, {"smiles": "O=c1c(-c2ccc(O)cc2)coc2cc(O)ccc12", "note": "[DAIDZEIN]", "values": [{"measurement": "inhibition", "setting": "[1]", "result": "Active"}, {"measurement": "IC50", "setting": "[5]", "result": 32.2, "unit": "µM"}, {"measurement": "IC50", "setting": "[7]", "result": 162, "unit": "µM"}]}, {"smiles": "O=C(O)c1ccccc1Nc1cccc(C(F)(F)F)c1", "note": "[FLUFENAMIC ACID]", "values": [{"measurement": "inhibition", "setting": "[1]", "result": "Active"}, {"measurement": "IC50", "setting": "[5]", "result": 96, "unit": "µM"}, {"measurement": "inhibition", "setting": "[10]", "result": "inactive"}]}, {"smiles": "O=c1cc(-c2ccc(O)c(O)c2)oc2cc(O)cc(O)c12", "note": "[LUTEOLIN]", "values": [{"measurement": "inhibition", "setting": "[1]", "result": "Active"}, {"measurement": "IC50", "setting": "[5]", "result": 9.2, "unit": "µM"}, {"measurement": "EC50", "setting": "[6]", "result": 26.7, "unit": "µM"}, {"measurement": "inhibition", "setting": "[3]", "result": 33, "unit": "%"}, {"measurement": "IC50", "setting": "[8]", "result": 108, "unit": "µM"}]}]}
